Drawing on publication PMC9036676 (RSC Advances, 2021), this text covers IC50 for 3 compounds.

For one assay, the system named is PD-1/PD-L1 interaction. Conditions: read-out: IC50, inhibitory activity against the PD-1/PD-L1 interaction; cited from earlier work.
The next assay concerns the target PD-1/PD-L1 (Homo sapiens, UniProt Q9NZQ7). Briefly: PD-1/PD-L1 TR-FRET assay. It counts as binding. Conditions: IC50 on PD-1/PD-L1, TR-FRET assay.

Positions of bridges follow the written chain, without caps; N, C: chain ends. Non-standard residues stand in square brackets, D forms with d. Residues, ends and D or L forms follow the SMILES beside them. Trp(1-CH2COOH) = N[C@@H](Cc1cn(CC(=O)O)c2ccccc12)C(=O)O; Oic = O=C(O)[C@@H]1C[C@@H]2CCCC[C@@H]2N1; Hyp = O=C(O)[C@@H]1C[C@@H](O)CN1; NMeNle = CCCC[C@H](NC)C(=O)O; Pip = O=C(O)[C@@H]1CCCCN1; NMeA = CN[C@@H](C)C(=O)O; Dab = NCC[C@H](N)C(=O)O; Dap = NC[C@H](N)C(=O)O

Chain of PD-1/PD-L1 (Q9NZQ7 19-238 limits assumed): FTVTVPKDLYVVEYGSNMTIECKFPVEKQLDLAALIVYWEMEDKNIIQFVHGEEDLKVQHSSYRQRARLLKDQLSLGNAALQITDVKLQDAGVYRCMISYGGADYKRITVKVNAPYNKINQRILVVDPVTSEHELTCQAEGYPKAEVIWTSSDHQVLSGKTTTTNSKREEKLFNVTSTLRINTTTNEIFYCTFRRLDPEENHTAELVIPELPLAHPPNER

In the case of `CCCC[C@H]1C(=O)N(C)[C@@H](CCCC)C(=O)N[C@@H](CCCNC(=N)N)C(=O)N[C@H](C(=O)NCC(N)=O)CSCC(=O)N[C@@H](Cc2ccccc2)C(=O)N(C)[C@@H](C)C(=O)N[C@@H](CC(N)=O)C(=O)N2CCC[C@H]2C(=O)N[C@@H](Cc2c[nH]cn2)C(=O)N[C@@H](CC(C)C)C(=O)N[C@@H](CO)C(=O)N[C@@H](Cc2c[nH]c3ccccc23)C(=O)N[C@@H](CO)C(=O)N[C@@H](Cc2c[nH]c3ccccc23)C(=O)N1C` [Compound 1] ({CH2CO}-F[NMeA]NPHLSWSW[NMeNle][NMeNle]RCG-NH2; thioether N-14), the IC50 with PD-1/PD-L1 interaction was 9 nM.
Take `CCCC[C@H]1C(=O)N(C)[C@@H](CCCC)C(=O)N[C@@H](CC(C)C)C(=O)N[C@H](C(=O)NCC(N)=O)CSCC(=O)N[C@@H](Cc2ccccc2)C(=O)N(C)[C@@H](C)C(=O)N[C@@H](CC(N)=O)C(=O)N2CCC[C@H]2C(=O)N[C@@H](Cc2c[nH]cn2)C(=O)N[C@@H](CC(C)C)C(=O)N2C[C@H](O)C[C@H]2C(=O)N[C@@H](Cc2c[nH]c3ccccc23)C(=O)N[C@@H](CO)C(=O)N[C@@H](Cc2c[nH]c3ccccc23)C(=O)N1C` [Compound 2] ({CH2CO}-F[NMeA]NPHL[Hyp]WSW[NMeNle][NMeNle]LCG-NH2; thioether N-14): the IC50 on PD-1/PD-L1 amounted to 40.1 nM.
Consider `CCCC[C@H]1C(=O)N(C)[C@@H](CCCC)C(=O)N[C@@H](CC(C)C)C(=O)N[C@H](C(=O)NCC(N)=O)CSCC(=O)N[C@@H](Cc2ccc(O)cc2)C(=O)N2CCCC[C@H]2C(=O)N[C@@H](CC(N)=O)C(=O)N2[C@@H](C[C@@H]3CCCC[C@@H]32)C(=O)N[C@@H](CN)C(=O)N[C@@H](CC(C)C)C(=O)N2C[C@H](O)C[C@H]2C(=O)N[C@@H](Cc2c[nH]c3ccccc23)C(=O)N[C@@H](CCN)C(=O)N[C@@H](Cc2cn(CC(=O)O)c3ccccc23)C(=O)N1C` [Compound 5] ({CH2CO}-Y[Pip]N[Oic][Dap]L[Hyp]W[Dab][Trp(1-CH2COOH)][NMeNle][NMeNle]LCG-NH2; thioether N-14), for which, on PD-1/PD-L1, the IC50 came to 14.6 nM.
